# Reference: article PMC4468202, “Improved Visualization and Specific Binding for Metabotropic Glutamate Receptor Subtype 1 (mGluR1) Using [^11C]ITMM with Ultra-High Specific Activity in Small-Animal PET” (PLoS ONE, 2015)
# Where “and” joins values, the source holds several entries; their conditions need not be identical. Equal entries are not always repeated. Where two headings read alike, the source gives them in different places.
# Tests used:
# mGluR1 [1] = tested on: mGluR1; parameters: method as in PMID 23804329; conditions: cited from earlier work; for total distribution volume (V T): human brain
# mGluR1 [2] = target: mGluR1 (Rattus norvegicus, UniProt P23385); assay: Two-tissue compartment model (2TCM) kinetic analysis of PET data; format: in vivo; parameters: from tissue; host or cells: living SD rat brain (in vivo PET)
# mGluR1 (Rattus norvegicus, UniProt P23385), sequence (P23385 19-1199): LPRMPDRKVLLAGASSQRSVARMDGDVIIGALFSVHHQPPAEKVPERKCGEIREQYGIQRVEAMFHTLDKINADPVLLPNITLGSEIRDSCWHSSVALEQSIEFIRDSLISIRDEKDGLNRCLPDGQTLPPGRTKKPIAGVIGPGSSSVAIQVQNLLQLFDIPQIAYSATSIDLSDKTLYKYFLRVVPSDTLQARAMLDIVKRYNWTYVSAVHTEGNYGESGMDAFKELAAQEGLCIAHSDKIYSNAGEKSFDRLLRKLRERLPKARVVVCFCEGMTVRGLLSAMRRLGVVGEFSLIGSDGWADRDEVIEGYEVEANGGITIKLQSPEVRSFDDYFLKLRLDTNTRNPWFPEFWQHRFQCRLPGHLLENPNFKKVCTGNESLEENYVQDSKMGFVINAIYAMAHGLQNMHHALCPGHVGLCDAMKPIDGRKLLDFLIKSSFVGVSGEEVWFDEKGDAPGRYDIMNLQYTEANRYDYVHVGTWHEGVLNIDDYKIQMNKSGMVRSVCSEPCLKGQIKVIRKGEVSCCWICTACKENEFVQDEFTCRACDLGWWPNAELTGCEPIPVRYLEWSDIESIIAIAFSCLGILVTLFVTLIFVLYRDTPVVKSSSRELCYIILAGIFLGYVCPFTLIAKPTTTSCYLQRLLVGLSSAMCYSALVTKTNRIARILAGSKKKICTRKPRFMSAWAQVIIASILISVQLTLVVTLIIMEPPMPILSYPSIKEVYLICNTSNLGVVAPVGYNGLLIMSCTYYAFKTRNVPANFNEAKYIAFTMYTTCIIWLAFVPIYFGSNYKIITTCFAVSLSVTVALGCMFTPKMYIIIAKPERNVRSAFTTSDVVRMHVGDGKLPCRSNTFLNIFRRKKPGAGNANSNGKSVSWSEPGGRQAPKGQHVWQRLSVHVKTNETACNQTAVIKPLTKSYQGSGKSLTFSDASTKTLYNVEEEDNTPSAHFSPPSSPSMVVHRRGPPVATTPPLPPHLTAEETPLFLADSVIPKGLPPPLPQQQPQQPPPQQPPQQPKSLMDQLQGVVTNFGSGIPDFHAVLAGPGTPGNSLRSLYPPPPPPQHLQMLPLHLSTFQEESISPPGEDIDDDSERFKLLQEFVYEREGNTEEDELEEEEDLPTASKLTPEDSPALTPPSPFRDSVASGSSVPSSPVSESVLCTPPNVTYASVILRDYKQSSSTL
# Experimental: Kinetic analysis of [^11C]ITMM was performed using the two-tissue compartment model (2TCM). The compartments correspond to the radioactivity concentrations of unchanged radioprobe in the plasma (C P), free and non-specifically bound radioprobe (C 1), and radioprobe specifically bound to receptors (C 2). The rate constants K 1 and k 2 correspond to the influx and outflux rates of the radioprobe across the blood-brain barrier. The rate constants k 3 and k 4 correspond to the rates of radioprobe transfer between the C 1 and C 2 compartments. The blood volume fraction (vB) in the rat brain was fixed at 2% [28]. The four rate constants of the 2TCM were obtained by a nonlinear least squares fitting technique, using PMOD version 3.4 (PMOD Technologies).
# The distribution of [^11C]ITMM in free or tissue compartments was described using the concept of free ligand distribution volume (DV f) or V T, which was defined by the following equations: DVf=K1/k2 (1) VT=DVf(1+k3/k4) (2)
# The nondisplacable binding potential (BP ND) is defined using the index of specific bindings of the radioprobe, meaning the receptor density (B max) to binding affinity (K D) ratio, which corresponds with the ratio of k 3 to k 4 in the 2TCM [26]. The BP ND is defined as follows: BPND=fND⋅Bmax/KD=k3/k4 (3) Here, f ND represents the tissue-free fraction of radioprobe in the nondisplacable compartment. Although the fraction of radioprobe that is unbound to plasma proteins was not measured in the present study, the value of f ND is close to 1.0 [29].
# [3] = cingulate cortex, conventional SA
# [4] = cingulate cortex, ultra-high SA
# [5] = substantia nigra, conventional SA
# [6] = substantia nigra, ultra-high SA
smiles,measurement,setting,value
"CC(C)Nc1cc(-c2csc(N(C)C(=O)c3ccc(O[11CH3])cc3)n2)ncn1 [[^11C]ITMM, N-[4-[6-(isopropylamino)pyrimidin-4-yl]-1,3-thiazol-2-yl]-4-[^11C]methoxy-N-methyl-benzamide]",[^11C]ITMM that reached the brain,"mGluR1 [1]; healthy humans, first-in human PET study",0.001–0.004 % of the injection dose/mL
same,total distribution volume (V T),mGluR1 [1]; cerebellum (mGluR1-rich region),2.61 mL/cm^3
same,total distribution volume (V T),mGluR1 [1]; pons (mGluR1-negligible region),0.52 mL/cm^3
same,BP ND (k 3/k 4),"mGluR1 [2]; cerebellum, conventional SA",33.2 ± 1.4
same,DV f (K 1/k 2),"mGluR1 [2]; cerebellum, conventional SA",0.429 ± 0.020
same,K 1,"mGluR1 [2]; cerebellum, conventional SA",0.344 ± 0.010 mL/cm^3/min
same,V T,"mGluR1 [2]; cerebellum, conventional SA",14.56 ± 0.50 mL/cm^3
same,k 2,"mGluR1 [2]; cerebellum, conventional SA",0.811 ± 0.045 min⁻¹
same,k 3,"mGluR1 [2]; cerebellum, conventional SA",0.619 ± 0.035 min⁻¹
same,k 4,"mGluR1 [2]; cerebellum, conventional SA",0.019 ± 0.001 min⁻¹
same,BP ND (k 3/k 4),"mGluR1 [2]; cerebellum, ultra-high SA",48.9 ± 2.6
same,DV f (K 1/k 2),"mGluR1 [2]; cerebellum, ultra-high SA",0.336 ± 0.020
same,K 1,"mGluR1 [2]; cerebellum, ultra-high SA",0.366 ± 0.019 mL/cm^3/min
same,V T,"mGluR1 [2]; cerebellum, ultra-high SA",16.69 ± 0.92 mL/cm^3
same,k 2,"mGluR1 [2]; cerebellum, ultra-high SA",1.112 ± 0.098 min⁻¹
same,k 3,"mGluR1 [2]; cerebellum, ultra-high SA",0.799 ± 0.035 min⁻¹
same,k 4,"mGluR1 [2]; cerebellum, ultra-high SA",0.016 ± 0.000 min⁻¹
same,BP ND (k 3/k 4),mGluR1 [2]; [3],21.7 ± 1.2
same,DV f (K 1/k 2),mGluR1 [2]; [3],0.302 ± 0.021
same,K 1,mGluR1 [2]; [3],0.312 ± 0.008 mL/cm^3/min
same,V T,mGluR1 [2]; [3],6.76 ± 0.25 mL/cm^3
same,k 2,mGluR1 [2]; [3],1.062 ± 0.086 min⁻¹
same,k 3,mGluR1 [2]; [3],0.643 ± 0.053 min⁻¹
same,k 4,mGluR1 [2]; [3],0.030 ± 0.001 min⁻¹
same,BP ND (k 3/k 4),mGluR1 [2]; [4],32.8 ± 1.9
same,DV f (K 1/k 2),mGluR1 [2]; [4],0.257 ± 0.008
same,K 1,mGluR1 [2]; [4],0.339 ± 0.019 mL/cm^3/min
same,V T,mGluR1 [2]; [4],8.66 ± 0.45 mL/cm^3
same,k 2,mGluR1 [2]; [4],1.317 ± 0.054 min⁻¹
same,k 3,mGluR1 [2]; [4],0.740 ± 0.036 min⁻¹
same,k 4,mGluR1 [2]; [4],0.023 ± 0.001 min⁻¹
same,BP ND (k 3/k 4),"mGluR1 [2]; hippocampus, conventional SA",24.8 ± 1.8
same,DV f (K 1/k 2),"mGluR1 [2]; hippocampus, conventional SA",0.292 ± 0.011
same,K 1,"mGluR1 [2]; hippocampus, conventional SA",0.303 ± 0.015 mL/cm^3/min
same,V T,"mGluR1 [2]; hippocampus, conventional SA",7.44 ± 0.27 mL/cm^3
same,k 2,"mGluR1 [2]; hippocampus, conventional SA",1.052 ± 0.082 min⁻¹
same,k 3,"mGluR1 [2]; hippocampus, conventional SA",0.644 ± 0.051 min⁻¹
same,k 4,"mGluR1 [2]; hippocampus, conventional SA",0.026 ± 0.001 min⁻¹
same,BP ND (k 3/k 4),"mGluR1 [2]; hippocampus, ultra-high SA",38.2 ± 1.5
same,DV f (K 1/k 2),"mGluR1 [2]; hippocampus, ultra-high SA",0.228 ± 0.008
same,K 1,"mGluR1 [2]; hippocampus, ultra-high SA",0.320 ± 0.020 mL/cm^3/min
same,V T,"mGluR1 [2]; hippocampus, ultra-high SA",8.93 ± 0.47 mL/cm^3
same,k 2,"mGluR1 [2]; hippocampus, ultra-high SA",1.415 ± 0.107 min⁻¹
same,k 3,"mGluR1 [2]; hippocampus, ultra-high SA",0.784 ± 0.027 min⁻¹
same,k 4,"mGluR1 [2]; hippocampus, ultra-high SA",0.021 ± 0.000 min⁻¹
same,BP ND (k 3/k 4),"mGluR1 [2]; pons, conventional SA",8.3 ± 0.5
same,DV f (K 1/k 2),"mGluR1 [2]; pons, conventional SA",0.224 ± 0.011
same,K 1,"mGluR1 [2]; pons, conventional SA",0.271 ± 0.015 mL/cm^3/min
same,V T,"mGluR1 [2]; pons, conventional SA",2.06 ± 0.06 mL/cm^3
same,k 2,"mGluR1 [2]; pons, conventional SA",1.237 ± 0.122 min⁻¹
same,k 3,"mGluR1 [2]; pons, conventional SA",0.256 ± 0.022 min⁻¹
same,k 4,"mGluR1 [2]; pons, conventional SA",0.031 ± 0.001 min⁻¹
same,BP ND (k 3/k 4),"mGluR1 [2]; pons, ultra-high SA",9.8 ± 0.5
same,DV f (K 1/k 2),"mGluR1 [2]; pons, ultra-high SA",0.221 ± 0.015
same,K 1,"mGluR1 [2]; pons, ultra-high SA",0.244 ± 0.004 mL/cm^3/min
same,V T,"mGluR1 [2]; pons, ultra-high SA",2.39 ± 0.23 mL/cm^3
same,k 2,"mGluR1 [2]; pons, ultra-high SA",1.131 ± 0.084 min⁻¹
same,k 3,"mGluR1 [2]; pons, ultra-high SA",0.253 ± 0.011 min⁻¹
same,k 4,"mGluR1 [2]; pons, ultra-high SA",0.026 ± 0.001 min⁻¹
same,BP ND (k 3/k 4),"mGluR1 [2]; striatum, conventional SA",20.0 ± 1.1
same,DV f (K 1/k 2),"mGluR1 [2]; striatum, conventional SA",0.367 ± 0.015
same,K 1,"mGluR1 [2]; striatum, conventional SA",0.278 ± 0.014 mL/cm^3/min
same,V T,"mGluR1 [2]; striatum, conventional SA",7.7 mL/cm^3 and 7.66 ± 0.28 mL/cm^3
same,k 2,"mGluR1 [2]; striatum, conventional SA",0.769 ± 0.061 min⁻¹
same,k 3,"mGluR1 [2]; striatum, conventional SA",0.612 ± 0.036 min⁻¹
same,k 4,"mGluR1 [2]; striatum, conventional SA",0.031 ± 0.001 min⁻¹
same,BP ND (k 3/k 4),"mGluR1 [2]; striatum, ultra-high SA",30.6 ± 1.8
same,DV f (K 1/k 2),"mGluR1 [2]; striatum, ultra-high SA",0.311 ± 0.021
same,K 1,"mGluR1 [2]; striatum, ultra-high SA",0.294 ± 0.014 mL/cm^3/min
same,V T,"mGluR1 [2]; striatum, ultra-high SA",9.7 mL/cm^3 and 9.66 ± 0.41 mL/cm^3
same,k 2,"mGluR1 [2]; striatum, ultra-high SA",0.972 ± 0.083 min⁻¹
same,k 3,"mGluR1 [2]; striatum, ultra-high SA",0.722 ± 0.043 min⁻¹
same,k 4,"mGluR1 [2]; striatum, ultra-high SA",0.024 ± 0.001 min⁻¹
same,BP ND (k 3/k 4),mGluR1 [2]; [5],16.6 ± 1.6
same,DV f (K 1/k 2),mGluR1 [2]; [5],0.378 ± 0.030
same,K 1,mGluR1 [2]; [5],0.298 ± 0.021 mL/cm^3/min
same,V T,mGluR1 [2]; [5],6.4 mL/cm^3 and 6.44 ± 0.22 mL/cm^3
same,k 2,mGluR1 [2]; [5],0.840 ± 0.128 min⁻¹
same,k 3,mGluR1 [2]; [5],0.470 ± 0.031 min⁻¹
same,k 4,mGluR1 [2]; [5],0.029 ± 0.001 min⁻¹
same,BP ND (k 3/k 4),mGluR1 [2]; [6],26.1 ± 2.0
same,DV f (K 1/k 2),mGluR1 [2]; [6],0.321 ± 0.023
same,K 1,mGluR1 [2]; [6],0.292 ± 0.012 mL/cm^3/min
same,V T,mGluR1 [2]; [6],8.5 mL/cm^3 and 8.53 ± 0.47 mL/cm^3
same,k 2,mGluR1 [2]; [6],0.933 ± 0.075 min⁻¹
same,k 3,mGluR1 [2]; [6],0.602 ± 0.036 min⁻¹
same,k 4,mGluR1 [2]; [6],0.023 ± 0.001 min⁻¹
same,BP ND (k 3/k 4),"mGluR1 [2]; thalamus, conventional SA",25.5 ± 1.2
same,DV f (K 1/k 2),"mGluR1 [2]; thalamus, conventional SA",0.347 ± 0.018
same,K 1,"mGluR1 [2]; thalamus, conventional SA",0.303 ± 0.012 mL/cm^3/min
same,V T,"mGluR1 [2]; thalamus, conventional SA",9.1 mL/cm^3 and 9.12 ± 0.37 mL/cm^3
same,k 2,"mGluR1 [2]; thalamus, conventional SA",0.886 ± 0.064 min⁻¹
same,k 3,"mGluR1 [2]; thalamus, conventional SA",0.669 ± 0.033 min⁻¹
same,k 4,"mGluR1 [2]; thalamus, conventional SA",0.026 ± 0.001 min⁻¹
same,BP ND (k 3/k 4),"mGluR1 [2]; thalamus, ultra-high SA",38.5 ± 1.1
same,DV f (K 1/k 2),"mGluR1 [2]; thalamus, ultra-high SA",0.284 ± 0.018
same,K 1,"mGluR1 [2]; thalamus, ultra-high SA",0.313 ± 0.016 mL/cm^3/min
same,V T,"mGluR1 [2]; thalamus, ultra-high SA",11.2 mL/cm^3 and 11.15 ± 0.51 mL/cm^3
same,k 2,"mGluR1 [2]; thalamus, ultra-high SA",1.125 ± 0.088 min⁻¹
same,k 3,"mGluR1 [2]; thalamus, ultra-high SA",0.817 ± 0.025 min⁻¹
same,k 4,"mGluR1 [2]; thalamus, ultra-high SA",0.021 ± 0.000 min⁻¹
